Laboratory results taken from publication PMC4839570, “Novel Anthra[1,2-c][1,2,5]Thiadiazole-6,11-Diones as Promising Anticancer Lead Compounds: Biological Evaluation, Characterization & Molecular Targets Determination” (PLoS ONE, 2016).
Values after ≈ are worked out from the molar mass of the structure shown.

Assays:
[1] = Caco-2 permeability; assay type: in vitro ADME, human; conditions: human, Caco-2
Description: (§1) We tested both the absorptive (from the apical to basolateral compartments; A→BL) and secretory (from the basolateral to apical compartments; BL→A) permeabilities of our compound. We determined the amounts of compound transported at the specified time points and calculated the cumulative fractions [F (cum)] transported with respect to time according to the following equation [43]: F(cum)=∑^[CR(tk)−fCR(tk−1)].VR/CD.VD Where C is the concentration (μM), V is the volume (mL) of the receiver (R) or donor (D), tk is time point k, and f is the sample replacement factor calculated as f=(1−Vs/VR) , where VS is the volume of the sample (mL).
(§2) We determined the permeability coefficients as follows: Papp=(ΔF(cum)/Δt).(1/A).VD Where (ΔF(cum)/Δt) is the slope of the graph of F(cum) versus time (s), A is the area of the filter (cm^2), and VD is the volume of the donor compartment (mL).
(§3) We determined the active transport by calculating the uptake ratios and the intestinal efflux by calculating the efflux ratios using the following equations [8]: Uptake ratio=Papp(A→BL)/Papp(BL→A) Efflux ratio=Papp(BL→A)/Papp(A→BL) Where Papp(A→BL) is the absorptive permeability coefficient, and Papp(BL→A) is the secretory permeability coefficient.
(§4) The transport of our compounds through the Caco-2 cells was tested according to Hubatsch et al., 2007 [8]. Briefly, Caco-2 cells were seeded at a density of 2.6 × 10^5 cells/cm^2 onto Corning Transwell® polyester membrane inserts (1.2 cm^2 membrane diameter, 0.4 μm pore size, product #3460) in 12-well tissue culture plates and cultured in Dulbecco’s modified Eagle’s medium with high glucose (4500 mg/liter glucose) and L-glutamine (without pyruvate) supplemented with 10% FBS, 1% non-essential amino acids and 1% penicillin/streptomycin. Cells were incubated for at least 21 days at the specified conditions with the change of medium every two days. The TEER was measured using Millicell® ERS device for each insert after every change of medium to monitor the development of the cells monolayer. Cell monolayers with TEER values less than 300 Ω.cm^2 at the end of the maintenance period were not suitable for the experiment and discarded. The integrity of the cell monolayers were further confirmed by testing the phenol red permeability through the cells. The transport experiments were started by replacing the incubation culture media with the transport buffers with or without the tested compounds, the transport was tested in both directions (apical to basolateral and basolateral to apical). We used Hank’s balanced salt solution without phenol red as the transport medium buffered with either methanesulfonic acid (pH = 6.5) as the transport buffer in the apical compartment or buffered with HEPES and NaHCO3 (pH = 7.4) as the transport buffer in the basolateral compartment. NSC745885 was dissolved in the transport buffers with the aid of 1% DMSO to get final concentrations between 4–5 μM. Samples from the receiver compartments were withdrawn at different time intervals (0 min, 30 min, 45 min, 60 min, 75 min, 90 min, 120 min) and the amounts of transported drug were determined using the HPLC. After the transport experiments, the TEER was checked for every cell monolayer to assure that the monolayers were not compromised from the effect of the tested drug. The apparent permeabilities were calculated as mentioned in the previous section.

[2] = test system: human intestinal Caco-2 cells; assay: Caco-2 permeability; assay type: in vitro ADME
Description: as §1, §2, §3, §4

[3] = test system: MGH-U1R cell line; parameters: method as in PMID 25431950; conditions: MGH-U1R; cited from earlier work
[4] = test system: MGH-U1 cells; parameters: method as in PMID 25431950; conditions: cited from earlier work
[5] = test system: Mycobacterium tuberculosis H37Rv; assay: Antimycobacterial susceptibility, BACTEC MGIT 960 SIRE; assay type: cell-based

Structure (SMILES) | Papp A→B at 120 min ([1]; 4–5 μM, apical pH 6.5, basolateral pH 7.4, read-out: Absorptive permeability Papp(A→BL)) | Papp B→A at 120 min ([1]; 4–5 μM, apical pH 6.5, basolateral pH 7.4, read-out: Secretory permeability Papp(BL→A)) | efflux ratio at 120 min ([1]; Papp(BL→A)/Papp(A→BL)) | Permeability ranking [2] | Uptake ratio ([2]; Papp(A→BL)/Papp(BL→A)) | concentration that completely suppressed growth of the resistant cell line [3] | concentration that inhibited the non-resistant cells [4] | Effect on M. tuberculosis H37Rv ([5]; 1.25 μg/mL) | Effect on M. tuberculosis H37Rv ([5]; 2.5 μg/mL) | Effect on M. tuberculosis H37Rv ([5]; 5 μg/mL) | Effect on M. tuberculosis H37Rv ([5]; 7.5 μg/mL) | Effect on M. tuberculosis H37Rv ([5]; 10 μg/mL) | Effect on M. tuberculosis H37Rv ([5]; 15 μg/mL) | Effect on M. tuberculosis H37Rv ([5]; 20 μg/mL) | MIC ([5]; Mycobacterium tuberculosis, 336 h, H37Rv, 14 days)
O=C1c2ccccc2C(=O)c2c1ccc1nsnc21 [NSC745885, anthra[1,2-c][1,2,5]thiadiazole-6,11-dione] | 318 nm/s | 354 nm/s | 1.11 | High; completely absorbed | 0.898 | 2.5 µM | 2.5 µM | – | – | – | – | – | – | – | –
O=C1c2ccccc2C(=O)c2c1cc(Cl)c1nsnc21 [NSC757963] | – | – | – | – | – | – | – | Growth | Growth | Growth | Growth | Inhibition | Inhibition | Inhibition | 10 mg/L (≈ 33.3 µM)
